A word on the IC50: it is the point on the concentration scale where inhibition reaches its midpoint. Usually T/C stands for the result in the treated group divided by that in the control group, in per cent. One may read the Cmax as the maximum level reached in the sampled fluid or tissue. Usually AUC(0-t) stands for the area under the concentration-time curve up to a stated or last time point. A low value points to less exposure. As usually defined, the half-life is the time in which the quantity being followed falls by half. Read a high half-life as slow loss. As a reminder, the Vd is a proportionality between amount in the body and measured concentration, not a real space. As a reminder, the clearance is a measure of how efficiently the substance is removed, as volume per time. One may read the bioavailability as the share of a dose that reaches the circulation, judged against a reference dose that is usually intravenous. Read a high bioavailability as good availability. As a reminder, the microsomal CLint is the rate of metabolic loss divided by the concentration. Lower therefore signals greater metabolic stability.

The source of these data is ChEMBL document CHEMBL4304763 (Eur J Med Chem, 2019).

The source made the active and inactive calls. The calls are words filed in the database; no cut-off is given here.

Data set [1] relates to MCF7. Kind of data set: cells. As to conditions: Homo sapiens.
For the next data set, the system named is T47D. The data set can be described thus: cells. As to conditions: Homo sapiens.
Data set [2] has as its system COLO 205. The data set can be described thus: cells. Particulars: Homo sapiens.
The subject of another data set is A549. The data set can be described thus: cells. Particulars: Homo sapiens.
Another data set relates to ZR-75-1. The data set can be described thus: cells. Particulars: Homo sapiens.
The subject of data set [3] is MCF7. Type of data set: functional, Homo sapiens. Particulars: at 50 mg/kg.
In data set [4] the test system is COLO 205. As to conditions: Homo sapiens.
The subject of another data set is U-87 MG. Kind of data set: cells. As to conditions: Homo sapiens.
A further data set relates to U-251. Kind of data set: cells. As to conditions: Homo sapiens.
The test system of the next data set is HepG2. Kind of data set: cells. Particulars: Homo sapiens.
The next data set has as its system SNU-5. Kind of data set: cells. Particulars: Homo sapiens.
The next data set has as its system NCI-N87. The data set can be described thus: cells. Particulars: Homo sapiens.
A further data set deals with NCI-H1975. The data set can be described thus: cells. Particulars: Homo sapiens.
For the next data set, the system named is NCI-H1993. The data set can be described thus: cells. Particulars: Homo sapiens.
The test system of another data set is CFPAC-1. The data set can be described thus: cells. As to conditions: Homo sapiens.
For a further data set, the system named is PANC-1. Kind of data set: cells. Particulars: Homo sapiens.
A further data set deals with BXPC-3. Kind of data set: cells. Particulars: Homo sapiens.
A further data set concerns LNCaP. The data set can be described thus: cells. Particulars: Homo sapiens.
For another data set, the system named is PC-3. The data set can be described thus: cells. As to conditions: Homo sapiens.
Data set [5] can be described thus: in vivo. As to conditions: BALB/c, mouse, iv, 3 mg/kg.
Data set [6] in a line: in vivo. As to conditions: BALB/c, mouse, iv, 3 mg/kg. The source holds these as a separate data set.
A short description of data set [7]: in vivo. Particulars: BALB/c, mouse, iv, 3 mg/kg. This is another data set of the same source.
Data set [8] can be described thus: in vivo. Particulars: BALB/c, mouse, iv, 3 mg/kg. This is another data set of the same source.
Data set [9] in a line: in vivo. Particulars: BALB/c, mouse, iv, 3 mg/kg. This is another data set of the same source.
Data set [10] is described as follows: in vivo. Particulars: BALB/c, mouse, po, 10 mg/kg.
A short description of data set [11]: in vivo. As to conditions: BALB/c, mouse, po, 10 mg/kg. This is another data set of the same source.
The nature of data set [12]: in vivo. As to conditions: BALB/c, mouse, po, 10 mg/kg. The source holds these as a separate data set.
Data set [13] can be described thus: in vivo. Particulars: BALB/c, mouse, po, 10 mg/kg. This is another data set of the same source.
A short description of data set [14]: in vitro. Particulars: human, microsomes.
The nature of data set [15]: in vitro. Particulars: mouse, microsomes.
Data set [16] can be described thus: in vitro. Particulars: rat, microsomes.
The nature of data set [17]: in vitro. As to conditions: dog, microsomes.
Data set [18] can be described thus: in vitro. As to conditions: rhesus monkey, microsomes.
Data set [19] can be described thus: in vitro. Particulars: human, microsomes. This is another data set of the same source.
The nature of data set [20]: in vitro. Particulars: mouse, microsomes. The source holds these as a separate data set.
Data set [21] can be described thus: in vitro. As to conditions: rat, microsomes. This is another data set of the same source.
Data set [22] is described as follows: in vitro. Particulars: dog, microsomes. This is another data set of the same source.
The nature of data set [23]: in vitro. Particulars: rhesus monkey, microsomes. The source holds these as a separate data set.

For `Cc1nc2c(F)cc(-c3nc(Nc4ccc5c(n4)CCN(CCN(C)P(C)(C)=O)C5)ncc3F)cc2n1C(C)C`, the IC50 was determined as 0.551 µM in the data set on MCF7 [1], 0.029 µM in the data set with T47D, 0.387 µM in the data set on COLO 205 [2] and 0.934 µM with A549.
As for `CCOP(=O)(OCC)N(C)CCN1CCc2nc(Nc3ncc(F)c(-c4cc(F)c5nc(C)n(C(C)C)c5c4)n3)ccc2C1`, the IC50 in the data set on MCF7 [1] was 0.15 µM; in the data set with ZR-75-1 it was 0.453 µM; with COLO 205 [2], 0.911 µM; with A549 it was 1.06 µM.
For `C/C(=N\O)N(C)CCN1CCc2nc(Nc3ncc(F)c(-c4cc(F)c5nc(C)n(C(C)C)c5c4)n3)ccc2C1`, the concentration for half-maximal inhibition (IC50) with MCF7 [1] came to 0.193 µM; with T47D it was 0.0625 µM; with ZR-75-1 it was 0.121 µM; in the data set with COLO 205 [2], 0.125 µM; in the data set on A549, 0.423 µM.
For `CCN1CCN(Cc2ccc(Nc3ncc(F)c(-c4cc(F)c5nc(C)n(C(C)C)c5c4)n3)nc2)CC1` [ABEMACICLIB], the T/C in the data set with MCF7 [3] amounted to 37%. In the data set with COLO 205 [4], the TGI result was “Active”. In addition, the IC50 with U-87 MG is 0.706 µM; with U-251, 0.294 µM; in the data set on HepG2, 0.216 µM; in the data set with SNU-5, 0.523 µM; in the data set on NCI-N87, 0.519 µM; in the data set with NCI-H1975, 0.774 µM. The IC50 turned out to be 1.16 µM with NCI-H1993; 0.371 µM in the data set with CFPAC-1; 0.701 µM in the data set with PANC-1; 0.127 µM in the data set with BXPC-3; 0.084 µM in the data set on LNCaP; 9.21 µM in the data set with PC-3. Further, the results for the Cmax at 24 h in the data set “in vivo [5]” and in “in vivo [10]” were 0.765 µg/mL and 0.577 µg/mL, respectively. Moreover, the AUC(0-t) at 24 h in “in vivo [6]” came to 0.83 µg·h/mL; in “in vivo [11]” it was 2.17 µg·h/mL. Further, the half-life at 24 h in “in vivo [7]” was 325 min; in the data set “in vivo [12]”, 283 min. In addition, the Vd at 24 h in “in vivo [8]” came out at 8.24 L/kg. The clearance at 24 h in “in vivo [9]” was 3.6 L/h/kg. In addition, the bioavailability at 24 h in “in vivo [13]” worked out at 78.6%. The half-life at 1 h is 8.15 min in the data set “in vitro [14]”; 8.25 min in the data set “in vitro [15]”; 231 min in the data set “in vitro [16]”; 17.8 min in “in vitro [17]”; 3.96 min in the data set “in vitro [18]”. Besides, the intrinsic clearance (microsomal CLint) at 1 h in “in vitro [19]” turned out to be 170 µL/min/mg; in “in vitro [20]”, 168 µL/min/mg; in “in vitro [21]”, 6 µL/min/mg; in the data set “in vitro [22]”, 78 µL/min/mg; in “in vitro [23]”, 350 µL/min/mg.
